From patent US11701372B2, “Inhalation formulations of 1'-cyano substituted carba-nucleoside analogs” (priority 2020, dated 2023)
Several values for one entry are separate records, joined by “and”; a condition that tells them apart may be missing. Identical values can stand only once. Like-named read-outs stand apart in the source and are kept apart here.

Key:
[1] = In use testing of reconstituted solutions in IV bags and IV tubings; format: physicochemical
Excerpt: The IV bags and IV tubings were sampled over time and tested for % assay/degradation.

[2] = format: physicochemical
Description: For each condition, samples were staged at ambient and refrigerated conditions. Samples were analyzed for % assay/degs, appearance, reconstitution time, pH, and compared to T=0. The structures of the key impurities/metabolites are shown below.

[3] = 24 hours, endogenous ATP

For `Oc1ccccc1` [Phenol], the “% assay/degradation” value [1] was 0.00 % w/w, the “% assay/degs” value ([2]; pH 1.8) was 0.00% and the “% assay/degs, difference from T = 0” value ([2]; pH 1.8) was 0.00% and 0.04% and 0.08%. For the same compound, the “% assay/degs” value ([2]; pH 2) was 0.00%, the “% assay/degs, difference from T = 0” value ([2]; pH 2) was 0.00% and 0.04% and 0.05% and the “% assay/degs” value ([2]; pH 3.5) was 0.00%. The “% assay/degs, difference from T = 0” value ([2]; pH 3.5) was 0.00%.

In the case of `Nc1ncnc2c1ncn2[C@@H]1O[C@H](COP(=O)(O)OP(=O)(O)OP(=O)(O)O)[C@@H](O)[C@H]1O` [ATP], the “ATP Peak Area (LC-MS/MS)” value ([3]; Nasal Mucosa, 0.168 mg/kg inhaled deposited dose of Formula Ia) is reported as 6.47 ± 0.40 ×10^8, the “ATP Peak Area (LC-MS/MS)” value ([3]; Nasal Mucosa, 0.536 mg/kg inhaled deposited dose of Formula Ia) is reported as 5.65 ± 0.79 ×10^8 and the “ATP Peak Area (LC-MS/MS)” value ([3]; Nasopharyngeal Mucosa, 0.168 mg/kg inhaled deposited dose of Formula Ia) is reported as 4.29 ± 0.84 ×10^8. For the same compound, the “ATP Peak Area (LC-MS/MS)” value ([3]; Nasopharyngeal Mucosa, 0.536 mg/kg inhaled deposited dose of Formula Ia) was 3.69 ± 0.40 ×10^8.

For `CCC(CC)COC(=O)[C@H](C)N[P@](=O)(OC[C@H]1O[C@@](C(N)=O)(c2ccc3c(N)ncnn23)[C@H](O)[C@@H]1O)Oc1ccccc1` [Compound G], the “% assay/degradation” value ([1]; 30 mg (IV Bag), 2-8° C. 24 h) was 0.05 % w/w, the “% assay/degradation” value ([1]; 30 mg (IV Bag), 2-8° C. 48 h) was 0.06 % w/w and the “% assay/degradation” value ([1]; 30 mg (IV Bag), Ambient 4 h) was 0.06 % w/w. For the same compound, the “% assay/degradation” value ([1]; 30 mg (IV Bag), Ambient 8 h) was 0.06 % w/w, the “% assay/degradation” value ([1]; 30 mg (IV Bag), Ambient 24 h) was 0.06 % w/w and the “% assay/degradation” value ([1]; 30 mg (IV Bag), T = 0 (2-8° C. series)) was 0.05 % w/w. For the same compound, the “% assay/degradation” value ([1]; 30 mg (IV Tube), Ambient 6 Hours) was 0.06 % w/w, the “% assay/degradation” value ([1]; 30 mg in 100 mL 0.9% Saline (IV Bag), T = 0 (Ambient series)) was 0.05 % w/w and the “% assay/degradation” value ([1]; 200 mg (IV Bag), 2-8° C. 24 h) was 0.05 % w/w. For the same compound, the “% assay/degradation” value ([1]; 200 mg (IV Bag), 2-8° C. 48 h) was 0.06 % w/w, the “% assay/degradation” value ([1]; 200 mg (IV Bag), Ambient 4 h) was 0.06 % w/w and the “% assay/degradation” value ([1]; 200 mg (IV Bag), Ambient 8 h) was 0.06 % w/w. The “% assay/degradation” value ([1]; 200 mg (IV Bag), Ambient 24 h) was 0.06 % w/w, the “% assay/degradation” value ([1]; 200 mg (IV Bag), T = 0 (2-8° C. series)) was 0.05 % w/w and the “% assay/degradation” value ([1]; 200 mg (IV Tube), Ambient 6 h) was 0.05 % w/w. The “% assay/degradation” value ([1]; 200 mg in 100 mL 0.9% Saline (IV Bag), T = 0 (Ambient series)) was 0.05 % w/w, the “% assay/degs, difference from T = 0” value ([2]; pH 1.8, 2-8° C., 2 h) was 0.00% and the “% assay/degs, difference from T = 0” value ([2]; pH 1.8, 2-8° C., 3 h) was 0.00%. For the same compound, the “% assay/degs, difference from T = 0” value ([2]; pH 1.8, 2-8° C., 8 h) was 0.00%, the “% assay/degs, difference from T = 0” value ([2]; pH 1.8, 2-8° C., 24 h) was 0.00% and the “% assay/degs, difference from T = 0” value ([2]; pH 1.8, 2-8° C., 48 h) was 0.00%. The “% assay/degs, difference from T = 0” value ([2]; pH 1.8, Ambient, 1 h) was 0.00%, the “% assay/degs, difference from T = 0” value ([2]; pH 1.8, Ambient, 2 h) was 0.00% and the “% assay/degs, difference from T = 0” value ([2]; pH 1.8, Ambient, 3 h) was 0.00%. The “% assay/degs, difference from T = 0” value ([2]; pH 1.8, Ambient, 8 h) was 0.00%, the “% assay/degs, difference from T = 0” value ([2]; pH 1.8, Ambient, 24 h) was 0.00% and the “% assay/degs, difference from T = 0” value ([2]; pH 1.8, Ambient, 48 h) was 0.00%. For the same compound, the “% assay/degs” value ([2]; pH 1.8, T = 0) was 0.05%, the “% assay/degs, difference from T = 0” value ([2]; pH 2.0, 2-8° C., 2 h) was 0.00% and the “% assay/degs, difference from T = 0” value ([2]; pH 2.0, 2-8° C., 3 h) was 0.00%. The “% assay/degs, difference from T = 0” value ([2]; pH 2.0, 2-8° C., 8 h) was 0.00%, the “% assay/degs, difference from T = 0” value ([2]; pH 2.0, 2-8° C., 24 h) was 0.00% and the “% assay/degs, difference from T = 0” value ([2]; pH 2.0, 2-8° C., 48 h) was 0.00%. The “% assay/degs, difference from T = 0” value ([2]; pH 2.0, Ambient, 1 h) was 0.00%, the “% assay/degs, difference from T = 0” value ([2]; pH 2.0, Ambient, 2 h) was 0.00% and the “% assay/degs, difference from T = 0” value ([2]; pH 2.0, Ambient, 3 h) was 0.00%. For the same compound, the “% assay/degs, difference from T = 0” value ([2]; pH 2.0, Ambient, 8 h) was 0.00%, the “% assay/degs, difference from T = 0” value ([2]; pH 2.0, Ambient, 24 h) was 0.00% and the “% assay/degs, difference from T = 0” value ([2]; pH 2.0, Ambient, 48 h) was 0.00%. For the same compound, the “% assay/degs” value ([2]; pH 2.0, T = 0) was 0.05%, the “% assay/degs, difference from T = 0” value ([2]; pH 3.5, 2-8° C., 2 h) was 0.00% and the “% assay/degs, difference from T = 0” value ([2]; pH 3.5, 2-8° C., 8 h) was 0.00%. For the same compound, the “% assay/degs, difference from T = 0” value ([2]; pH 3.5, 2-8° C., 24 h) was 0.00%, the “% assay/degs, difference from T = 0” value ([2]; pH 3.5, 2-8° C., 48 h) was 0.00% and the “% assay/degs, difference from T = 0” value ([2]; pH 3.5, 2-8° C., 72 h) was 0.00%. The “% assay/degs, difference from T = 0” value ([2]; pH 3.5, 2-8° C., 96 h) was 0.00%, the “% assay/degs, difference from T = 0” value ([2]; pH 3.5, 2-8° C., 168 h) was 0.00% and the “% assay/degs, difference from T = 0” value ([2]; pH 3.5, Ambient, 2 h) was 0.00%. The “% assay/degs, difference from T = 0” value ([2]; pH 3.5, Ambient, 8 h) was 0.00%, the “% assay/degs, difference from T = 0” value ([2]; pH 3.5, Ambient, 24 h) was 0.00% and the “% assay/degs, difference from T = 0” value ([2]; pH 3.5, Ambient, 48 h) was 0.00%. For the same compound, the “% assay/degs, difference from T = 0” value ([2]; pH 3.5, Ambient, 72 h) was 0.00%, the “% assay/degs, difference from T = 0” value ([2]; pH 3.5, Ambient, 96 h) was 0.00% and the “% assay/degs, difference from T = 0” value ([2]; pH 3.5, Ambient, 168 h) was 0.00%. For the same compound, the “% assay/degs” value ([2]; pH 3.5, T = 0) was 0.05%, the “% assay/degs, difference from T = 0” value ([2]; pH 3.8, 2-8° C., 7.2 h) was 0.00% and the “% assay/degs, difference from T = 0” value ([2]; pH 3.8, 2-8° C., 24 h) was 0.00%. The “% assay/degs, difference from T = 0” value ([2]; pH 3.8, 2-8° C., 96 h) was 0.00%, the “% assay/degs, difference from T = 0” value ([2]; pH 3.8, 2-8° C., 168 h) was 0.00% and the “% assay/degs, difference from T = 0” value ([2]; pH 3.8, Ambient, 7.2 h) was 0.00%. For the same compound, the “% assay/degs, difference from T = 0” value ([2]; pH 3.8, Ambient, 24 h) was 0.00%, the “% assay/degs, difference from T = 0” value ([2]; pH 3.8, Ambient, 96 h) was 0.00% and the “% assay/degs, difference from T = 0” value ([2]; pH 3.8, Ambient, 168 h) was 0.00%. The “% assay/degs” value ([2]; pH 3.8, T = 0) was 0.05%, the “% assay/degs, difference from T = 0” value ([2]; pH 4.0, 2-8° C., 7.2 h) was 0.00% and the “% assay/degs, difference from T = 0” value ([2]; pH 4.0, 2-8° C., 24 h) was 0.00%. For the same compound, the “% assay/degs, difference from T = 0” value ([2]; pH 4.0, 2-8° C., 96 h) was 0.00%, the “% assay/degs, difference from T = 0” value ([2]; pH 4.0, 2-8° C., 168 h) was 0.00% and the “% assay/degs, difference from T = 0” value ([2]; pH 4.0, Ambient, 7.2 h) was 0.00%. For the same compound, the “% assay/degs, difference from T = 0” value ([2]; pH 4.0, Ambient, 24 h) was 0.00%, the “% assay/degs, difference from T = 0” value ([2]; pH 4.0, Ambient, 96 h) was 0.00% and the “% assay/degs, difference from T = 0” value ([2]; pH 4.0, Ambient, 168 h) was 0.00%. For the same compound, the “% assay/degs” value ([2]; pH 4.0, T = 0) was 0.06%.
